Measured values: patent publication US10865216B2, “Tricyclic Gyrase inhibitors” (MERCK SHARP & DOHME CORP., priority 2012, dated 2020)
In brackets after ≈: the same amount, converted by molar mass.

Key:
S. aureus ATCC 13709 = experiment: MIC, S. aureus ATCC 13709; assay type: cell-based; conditions: Alamar Blue read after overnight incubation at 35° C.; for MIC: Staphylococcus aureus, ATCC13709, S. aureus, read-out: MIC Sa; for MIC Sa: S. aureus
E. coli ATCC 25922 = experiment: MIC, E. coli ATCC 25922; assay type: cell-based; conditions: Alamar Blue read after overnight incubation at 35° C.; for MIC: Escherichia coli, ATCC25922, E. coli, read-out: MIC Ec; for MIC Ec: E. coli

Compound | MIC (S. aureus ATCC 13709) [µg/mL] | MIC (E. coli ATCC 25922) [µg/mL] | MIC Sa (S. aureus ATCC 13709) [µg/mL] | MIC Ec (E. coli ATCC 25922) [µg/mL]
CNc1cccc2c1[nH]c1nc(Sc3cnc4cccnc4c3)nc(N3CCN(C(=O)C4CCCO4)CC3)c12 (stereo not shown) [Compound 1.69] | ≤ 0.5 | 8 (≈ 14.8 µM) | – | –
CNc1cccc2c1[nH]c1nc(Sc3cnc4cccnc4c3)nc(N3CCC(C(O)c4cccs4)CC3)c12 (stereo not shown) [Compound 1.70] | 1 (≈ 1.81 µM) | > 32 | – | –
CNc1cccc2c1[nH]c1nc(Sc3cnc4ccc[n+]([O-])c4c3)nc(N3CC4C(N)C4C3)c12 (stereo not shown) [Compound 1.71] | – | – | ≤0.5 | ≤0.5
CNc1ccc(C)c2c1[nH]c1nc(Sc3cnc4ccc[n+]([O-])c4c3)nc(N3CC(N)C4(CC4)C3)c12 (stereo not shown) [Compound 1.72] | ≤ 0.5 | 1 (≈ 2.01 µM) | – | –
CNc1ccc(C)c2c1[nH]c1nc(Sc3cnc4ccc[n+]([O-])c4c3)nc(N3CC4C(N)C4C3)c12 (stereo not shown) [Compound 1.73] | ≤ 0.5 | 8 (≈ 16.5 µM) | – | –
CNc1cccc2c1[nH]c1nc(Sc3ccc4ccc(C(=O)O)nc4c3)nc(N3CC4C(N)C4C3)c12 (stereo not shown) [Compound 1.74] | 4 (≈ 8.04 µM) | > 64 | – | –
COc1cccc2c1[nH]c1nc(Sc3cnc4cccnc4c3)nc(N3CC4C(N)C4C3)c12 (stereo not shown) [Compound 1.75] | ≤ 0.5 | > 64 | – | –
COc1cccc2c1[nH]c1nc(Sc3cnc4nccnc4c3)nc(N3CC4C(N)C4C3)c12 (stereo not shown) [Compound 1.76] | 1 (≈ 2.19 µM) | > 64 | – | –
COc1cccc2c1[nH]c1nc(Sc3cnc4ccc[n+]([O-])c4c3)nc(N3CC(N)C3)c12 [Compound 1.77] | 2 (≈ 4.49 µM) | > 64 | – | –
COc1cccc2c1[nH]c1nc(Sc3cnc4ccc[n+]([O-])c4c3)nc(N3CC[C@@H](N)C3)c12 [Compound 1.78] | ≤ 0.5 | 64 (≈ 139 µM) | – | –
CNNc1cc(F)cc2c1[nH]c1nc(Oc3cnc(C)nc3)nc(N3CC4C(N)C4C3)c12 (stereo not shown) [Compound 2.1] | – | – | ≤0.5 | >16
CCc1cc(F)cc2c1[nH]c1nc(Oc3cncnc3)nc(N3CC4C(N)C4C3)c12 (stereo not shown) [Compound 2.2] | – | – | 2 (≈ 4.93 µM) | 4 (≈ 9.87 µM)
CCc1cc(F)cc2c1[nH]c1nc(Oc3cnc(C)nc3)nc(N3CC(N)C4(CC4)C3)c12 (stereo not shown) [Compound 2.3] | – | – | 1 (≈ 2.31 µM) | 16 (≈ 36.9 µM)
CCc1cc(F)cc2c1[nH]c1nc(Oc3cnc(C)nc3)nc(N3CC4CC(N)C4C3)c12 (stereo not shown) [Compound 2.4] | – | – | ≤0.5 | 1 (≈ 2.31 µM)
CCc1cc(F)cc2c1[nH]c1nc(Oc3cncnc3)nc(N3CC4CC(N)C4C3)c12 (stereo not shown) [Compound 2.5] | – | – | ≤0.5 | 2 (≈ 4.77 µM)
Cc1cc(F)cc2c1[nH]c1nc(Oc3cncnc3)nc(N3CC4C(N)C4C3)c12 (stereo not shown) [Compound 2.7] | – | – | 4 (≈ 10.2 µM) | >16
Nc1cccc2c1[nH]c1nc(Oc3cnc4cccnc4c3)nc(N3CC4C(N)C4C3)c12 (stereo not shown) [Compound 2.8] | – | – | 16 (≈ 37.7 µM) | >64
Cc1ncc(Oc2nc(N3CC(N)C4(CC4)C3)c3c(n2)[nH]c2c(N)cc(F)cc23)cn1 (stereo not shown) [Compound 2.9] | – | – | 16 (≈ 38.1 µM) | 16 (≈ 38.1 µM)
COc1cccc2c1[nH]c1nc(Oc3cncnc3)nc(N3CC[C@@H](N)C3)c12 [Compound 2.10] | – | – | 2 (≈ 5.3 µM) | 32 (≈ 84.8 µM)
COc1cccc2c1[nH]c1nc(Oc3cncnc3)nc(N3CCC(NC(C)=O)C3)c12 (stereo not shown) [Compound 2.11] | – | – | 4 (≈ 9.54 µM) | >64
COc1cccc2c1[nH]c1nc(Oc3cccc(C#N)c3)nc(N3CC4C(N)C4C3)c12 (stereo not shown) [Compound 2.12] | – | – | 16 (≈ 38.8 µM) | >64
COc1cccc2c1[nH]c1nc(Oc3cncnc3)nc(N3CC4C(N)C4C3)c12 (stereo not shown) [Compound 2.13] | – | – | 2 (≈ 5.14 µM) | 64 (≈ 164 µM)
COc1cccc2c1[nH]c1nc(Oc3cnc4cccnc4c3)nc(N3CC4C(N)C4C3)c12 (stereo not shown) [Compound 2.14] | – | – | 1 (≈ 2.28 µM) | >64
COc1cccc2c1[nH]c1nc(Oc3cccc(C#N)c3)nc(N3CC4C(N)C4C3)c12 (stereo not shown) [Compound 2.15] | – | – | 1 (≈ 2.42 µM) | >32
Cc1ncc(Oc2nc(N3CC4CC3C[C@H]4N)c3c(n2)[nH]c2c(N)cc(F)cc23)cn1 (stereo partly shown) [Compound 2.16] | 8 (≈ 19 µM) | 16 (≈ 38.1 µM) | – | –
CNc1cccc2c1[nH]c1nc(Oc3cncnc3)cc(N3CC4CC4(N)C3)c12 (stereo not shown) [Compound 3.1] | 1 (≈ 2.58 µM) | 4 (≈ 10.3 µM) | – | –
CNc1cccc2c1[nH]c1nc(Oc3cncc(C#N)c3)cc(N3CC[C@@H](N)C3)c12 [Compound 3.3] | 0.5 (≈ 1.25 µM) | 1 (≈ 2.5 µM) | – | –

Compound | MIC (S. aureus ATCC 13709) [µg/mL] | MIC (E. coli ATCC 25922) [µg/mL] | MIC Sa (S. aureus ATCC 13709) [µg/mL] | MIC Ec (E. coli ATCC 25922) [µg/mL]
CNc1cccc2c1[nH]c1nc(Oc3cncnc3)cc(N3CC[C@@H](N)C3)c12 [Compound 3.4] | 0.5 (≈ 1.33 µM) | ≤ 0.5 | – | –
CNc1cccc2c1[nH]c1nc(Oc3cnc(C)nc3)cc(N3CC[C@@H](N)C3)c12 [Compound 3.5] | 0.25 (≈ 0.642 µM) | ≤ 0.5 | – | –
CNc1cccc2c1[nH]c1nc(Oc3cncc(F)c3)cc(N3CC[C@@H](N)C3)c12 [Compound 3.6] | 0.5 (≈ 1.27 µM) | 1 (≈ 2.55 µM) | – | –
CNc1cccc2c1[nH]c1nc(Oc3cncc(F)c3)cc(N3CC4CNC4C3)c12 (stereo not shown) [Compound 3.7] | 1 (≈ 2.47 µM) | 4 (≈ 9.89 µM) | – | –
CNc1cccc2c1[nH]c1nc(Oc3cncnc3)cc(N3CC(N)C(O)C3)c12 (stereo not shown) [Compound 3.8] | 16 (≈ 40.9 µM) | > 64 | – | –
CNc1cccc2c1[nH]c1nc(Oc3cncnc3)cc(-c3cn[nH]c3)c12 [Compound 3.9] | 2 (≈ 5.6 µM) | 32 (≈ 89.5 µM) | – | –
CNc1cccc2c1[nH]c1nc(Oc3cnc(C)nc3)cc(N3CC[C@@H](NCCC#N)C3)c12 [Compound 3.10] | 32 (≈ 72.3 µM) | > 64 | – | –
CNc1cccc2c1[nH]c1nc(Oc3cnc(C)nc3)cc(N3CC4C(C3)C4NCCC#N)c12 (stereo not shown) [Compound 3.11] | ≤ 0.5 | 2 (≈ 4.4 µM) | – | –
CNc1cccc2c1[nH]c1nc(Oc3cncnc3)cc(N3C[C@H](NCC4CC4)C4(CC4)C3)c12 [Compound 3.12] | 1 (≈ 2.2 µM) | 8 (≈ 17.6 µM) | – | –
CNc1cccc2c1[nH]c1nc(Oc3cncnc3)cc(N3CC4C(C3)C4NCC3CC3)c12 (stereo not shown) [Compound 3.13] | ≤ 0.5 | 1 (≈ 2.26 µM) | – | –
CNc1cccc2c1[nH]c1nc(Oc3cnc(C)nc3)cc(N3CC4C(C3)C4NCC3CC3)c12 (stereo not shown) [Compound 3.14] | ≤ 0.5 | 2 (≈ 4.39 µM) | – | –
CNc1cccc2c1[nH]c1nc(Oc3cncnc3)cc(N3CC4CCC(N)C4C3)c12 (stereo not shown) [Compound 3.15] | 1 (≈ 2.41 µM) | 8 (≈ 19.3 µM) | – | –
CNc1cccc2c1[nH]c1nc(Oc3cncnc3)cc(N3CCC[C@@H](N)C3)c12 [Compound 3.16] | 4 (≈ 10.3 µM) | 4 (≈ 10.3 µM) | – | –
CNc1cccc2c1[nH]c1nc(Oc3cncnc3)cc(N3CCC(C(N)=O)C3)c12 (stereo not shown) [Compound 3.17] | 2 (≈ 4.96 µM) | > 16 | – | –
CNc1cccc2c1[nH]c1nc(Oc3cncnc3)cc(N3CC4C(C3)C4NC(=O)CN)c12 (stereo not shown) [Compound 3.18] | 4 (≈ 9 µM) | > 16 | – | –
CNc1cccc2c1[nH]c1nc(Oc3cncc(C(N)=O)c3)cc(N3CC4C(N)C4C3)c12 (stereo not shown) [Compound 3.19] | 8 (≈ 18.6 µM) | 32 (≈ 74.5 µM) | – | –
CNc1cccc2c1[nH]c1nc(Oc3cncc(C(=O)O)c3)cc(N3CC4C(N)C4C3)c12 (stereo not shown) [Compound 3.20] | > 8 | > 8 | – | –
CNc1cccc2c1[nH]c1nc(Oc3ccc(C(=O)OC)nc3)cc(N3CC4C(N)C4C3)c12 (stereo not shown) [Compound 3.21] | ≤ 0.5 | 1 (≈ 2.25 µM) | – | –
CNc1cccc2c1[nH]c1nc(Oc3ccc(C(=O)O)nc3)cc(N3CC4C(N)C4C3)c12 (stereo not shown) [Compound 3.22] | 16 (≈ 37.2 µM) | 64 (≈ 149 µM) | – | –
CNc1cccc2c1[nH]c1nc(Oc3cnc4ccoc4c3)cc(N3CC4C(N)C4C3)c12 (stereo not shown) [Compound 3.23] | ≤ 0.5 | 2 (≈ 4.69 µM) | – | –
CNc1cccc2c1[nH]c1nc(Oc3cnc(N4CCOCC4)nc3)cc(N3CC4C(N)C4C3)c12 (stereo not shown) [Compound 3.26] | > 16 | > 16 | – | –
CNc1cccc2c1[nH]c1nc(Oc3cncc(C#N)c3)cc(N3CC4C(N)C4C3)c12 (stereo not shown) [Compound 3.27] | 1 (≈ 2.43 µM) | 4 (≈ 9.72 µM) | – | –
CNc1cccc2c1[nH]c1nc(Oc3cncnc3)cc(N3CC4C(N)C4C3)c12 (stereo not shown) [Compound 3.28] | 1 (≈ 2.58 µM) | 2 (≈ 5.16 µM) | – | –
CNc1cccc2c1[nH]c1nc(Oc3cnc(C)nc3)cc(N3CC4C(N)C4C3)c12 (stereo not shown) [Compound 3.29] | ≤ 0.5 | ≤ 0.5 | – | –
CNc1cccc2c1[nH]c1nc(Oc3ccc[n+]([O-])c3)cc(N3CC4C(N)C4C3)c12 (stereo not shown) [Compound 3.30] | 16 (≈ 39.8 µM) | 16 (≈ 39.8 µM) | – | –
CNc1cccc2c1[nH]c1nc(Oc3ccc4nccnc4c3)cc(N3CC4C(N)C4C3)c12 (stereo not shown) [Compound 3.31] | 2 (≈ 4.57 µM) | 8 (≈ 18.3 µM) | – | –
